From patent US10266535B2, “Inhibitor of FLT3 kinase and use thereof” (HEFEI INSTITUTES OF PHYSICAL SCIENCE, CHINESE ACADEMY OF …, priority 2015, dated 2019)
Structures can show the parent of a compound that is named as a salt. Where two headings read alike, the source gives them in different places.

Legend:
[1] = tested on: TEL-BaF3-FLT3/ITD (stably expressing FLT3/ITD mutant activated kinase); test: Cell proliferation, Cell Titer-Glo, TEL-BaF3-FLT3/ITD; format: cell-based, mouse; settings: incubated for 72 hours, read-out: TEL-BaF3-FLT3/ITD IC50
Method: (§1) The above cell lines were constructed by our laboratory.
(§2) The number of viable cells was determined by quantification of ATP in living cells using the Cell Titer-Glo® (Promega, USA) chemiluminescence cell viability assay kit.

BTK protein kinase = BTK protein kinase (Homo sapiens (Human), UniProt Q06187); test: In vitro inhibition activity (enzymatic activity), ADP-Glo, BTK; format: biochemical; settings: ATP 10 μM
Chain of BTK protein kinase (Q06187 whole entry): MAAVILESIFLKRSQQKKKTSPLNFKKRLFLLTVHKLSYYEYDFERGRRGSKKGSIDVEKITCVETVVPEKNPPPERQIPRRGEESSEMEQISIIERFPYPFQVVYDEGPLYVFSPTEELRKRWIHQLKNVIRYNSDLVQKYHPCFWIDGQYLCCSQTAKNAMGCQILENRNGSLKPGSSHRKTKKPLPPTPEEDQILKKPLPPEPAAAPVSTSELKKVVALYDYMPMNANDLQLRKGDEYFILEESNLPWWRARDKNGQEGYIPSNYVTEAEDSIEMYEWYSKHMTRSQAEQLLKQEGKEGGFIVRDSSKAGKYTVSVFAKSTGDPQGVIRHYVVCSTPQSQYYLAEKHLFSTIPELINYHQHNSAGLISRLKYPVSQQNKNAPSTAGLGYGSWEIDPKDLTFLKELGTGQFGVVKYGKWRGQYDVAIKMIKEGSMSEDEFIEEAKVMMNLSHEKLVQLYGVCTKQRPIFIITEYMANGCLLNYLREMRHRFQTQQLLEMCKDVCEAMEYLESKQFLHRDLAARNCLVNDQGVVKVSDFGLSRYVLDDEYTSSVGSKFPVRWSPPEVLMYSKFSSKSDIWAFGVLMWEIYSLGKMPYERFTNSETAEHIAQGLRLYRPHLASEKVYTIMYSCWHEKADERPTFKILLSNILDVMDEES

[2] = tested on: U937 (expressing wild-type FLT3 gene); test: Cell proliferation, Cell Titer-Glo, U937; format: cell-based, human; settings: incubated for 72 hours, read-out: U937 IC50
Method: as §1, §2

pro-B cell BaF3 = test: Cell proliferation, Cell Titer-Glo, BaF3; format: cell-based; settings: Mus musculus, incubated for 72 hours
Method: as §1, §2

[3] = tested on: OCI-AML-3 (expressing FLT3 A680V mutant gene); test: Cell proliferation, Cell Titer-Glo, OCI-AML3; format: cell-based; settings: Homo sapiens, incubated for 72 hours
Method: as §1, §2

[4] = tested on: MOLM-14 (expressing FLT3/ITD mutant gene and wild-type FLT3 gene); test: Cell proliferation, Cell Titer-Glo, MOLM-14; format: cell-based; settings: Homo sapiens, MOLM-14; incubated for 72 hours; read-out: MOLM-14 IC50
Method: as §1, §2

[5] = tested on: TEL-BaF3-BMX (stably expressing BMX kinase); test: Cell proliferation, Cell Titer-Glo, TEL-BaF3-BMX; format: cell-based; settings: Mus musculus; incubated for 72 hours
Method: as §1, §2

[6] = tested on: TEL-BaF3-BLK (stably expressing BLK kinase); test: Cell proliferation, Cell Titer-Glo, TEL-BaF3-BLK; format: cell-based; settings: Mus musculus; incubated for 72 hours
Method: as §1, §2

[7] = tested on: MOLM-13 (expressing FLT3/ITD mutant gene and wild-type FLT3 gene); test: Cell proliferation, Cell Titer-Glo, MOLM-13; format: cell-based; settings: Homo sapiens, MOLM-13; incubated for 72 hours; read-out: MOLM-13 IC50
Method: as §1, §2

[8] = tested on: TPR-MET-BaF3 (stably expressing MET kinase); test: Cell proliferation, Cell Titer-Glo, TPR-MET-BaF3; format: cell-based; settings: Mus musculus; incubated for 72 hours
Method: as §1, §2

[9] = tested on: MV4-11 (expressing FLT3/ITD mutant gene); test: Cell proliferation, Cell Titer-Glo, MV4-11; format: cell-based; settings: Homo sapiens, MV4-11; incubated for 72 hours; read-out: MV4-11 IC50
Method: as §1, §2

[10] = tested on: TEL-JAK1-BaF3 (stably expressing JAK1 kinase); test: Cell proliferation, Cell Titer-Glo, TEL-JAK1-BaF3; format: cell-based; settings: Mus musculus; incubated for 72 hours
Method: as §1, §2

[11] = tested on: TEL-BaF3-FLT3-D835Y (stably expressing FLT3 D835Y mutant activated kinase); test: Cell proliferation, Cell Titer-Glo, TEL-BaF3-FLT3-D835Y; format: cell-based; settings: Mus musculus; incubated for 72 hours; read-out: TEL-BaF3-FLT3-D835Y IC50
Method: as §1, §2

For `Nc1ncnc2c1c(-c1ccc(Oc3ccccc3)cc1)nn2[C@@H]1CCCN(C(=O)[C@@H](N)Cc2c[nH]cn2)C1` [Compound 6, (S)-2-amino-1-((R)-3-(4-amino-(4-phenoxyphenyl)-1H-pyrazolo[3,4-d]pyrimidin-1-yl)piperidin-1-yl)-3-(1H-imidazol-4-yl)propan-1-one], which IC50 ([1]; Mus musculus, 72 h) is on record?
The IC50 was 1100 nM.

What about the IC50 (BTK protein kinase) of the same compound?
The IC50 was 128 nM.

And the IC50 ([2]; Homo sapiens, U-937, 72 h)?
The IC50 was over 10000 nM.

Which IC50 (BTK protein kinase) does the source give for `Nc1ncnc2c1c(-c1ccc(Oc3ccccc3)cc1)nn2[C@@H]1CCCN(C(=O)[C@@H](N)Cc2c[nH]c3ccccc23)C1` [Compound 9, (S)-2-amino-1-((R)-3-(4-amino-(4-phenoxyphenyl)-1H-pyrazolo[3,4-d]pyrimidin-1-yl)piperidin-1-yl)-3-(1H-indol-3-yl)propan-1-one] here?
The IC50 was 49 nM.

And the IC50 ([2]; Homo sapiens, U-937, 72 h)?
The IC50 was over 10000 nM.

For `CC(O)[C@@H](N)C(=O)N1CCC[C@@H](n2nc(-c3ccc(Oc4ccccc4)cc3)c3c(N)ncnc32)C1` (stereo partly drawn) [Compound 44, (R)-2-amino-1-((R)-3-(4-amino-(4-phenoxyphenyl)-1H-pyrazolo[3,4-d]pyrimidin-1-yl)piperidin-1-yl)-3-hydroxybutanone], which IC50 (pro-B cell BaF3) is on record?
Its IC50 is 3900 nM.

What about the IC50 [3] of the same compound?
The IC50 was 3760 nM.

What about the IC50 [4] of the same compound?
Its IC50 is 59 nM.

What about the IC50 [5] of the same compound?
Its IC50 is 119 nM.

And the IC50 [6]?
The IC50 was 1000 nM.

What about the IC50 ([1]; Mus musculus, 72 h) of the same compound?
Its IC50 is 22 nM.

And the IC50 [7]?
The IC50 was 72 nM.

And the IC50 (BTK protein kinase)?
Its IC50 is 53 nM.

What about the IC50 [8] of the same compound?
The IC50 was 2760 nM.

And the IC50 ([2]; Homo sapiens, U-937, 72 h)?
The IC50 was over 10000 nM.

And the IC50 [9]?
Its IC50 is 64 nM.

With `C[C@@H](N)C(=O)N1CCC[C@@H](n2nc(-c3ccc(Oc4ccccc4)cc3)c3c(N)ncnc32)C1` [Compound 47] as the compound, how does the IC50 (pro-B cell BaF3) read?
Its IC50 is 3800 nM.

And the IC50 [3]?
The IC50 was 2700 nM.

And the IC50 [4]?
The IC50 was 48 nM.

What about the IC50 [5] of the same compound?
The IC50 was 56 nM.

What about the IC50 [6] of the same compound?
Its IC50 is 680 nM.

What about the IC50 [1] of the same compound?
The IC50 was 22 nM.

And the IC50 [7]?
Its IC50 is 34 nM.

What about the IC50 (BTK protein kinase) of the same compound?
The IC50 was 27 nM.

And the IC50 [8]?
Its IC50 is 2460 nM.

What about the IC50 [2] of the same compound?
Its IC50 is over 10000 nM.

What about the IC50 [9] of the same compound?
The IC50 was 54 nM.

For `Nc1ncnc2c1c(-c1ccc(Oc3ccccc3)cc1)nn2[C@@H]1CCCN(C(=O)[C@H](N)CO)C1` [Compound 48], which IC50 (pro-B cell BaF3) is on record?
Its IC50 is 6500 nM.

And the IC50 [3]?
Its IC50 is 4360 nM.

And the IC50 [4]?
The IC50 was 79 nM.

What about the IC50 [6] of the same compound?
The IC50 was 1100 nM.

And the IC50 ([1]; Mus musculus, 72 h)?
The IC50 was 46 nM.

What about the IC50 [7] of the same compound?
The IC50 was 52 nM.

And the IC50 (BTK protein kinase)?
Its IC50 is 28 nM.

What about the IC50 [8] of the same compound?
The IC50 was 3520 nM.

What about the IC50 ([2]; Homo sapiens, U-937, 72 h) of the same compound?
The IC50 was over 10000 nM.

And the IC50 [9]?
Its IC50 is 61 nM.

What does the source list for `CC(C)CC(=O)N1CCC[C@@H](n2nc(-c3ccc(Oc4ccccc4)cc3)c3c(N)ncnc32)C1` [Compound 53]?
IC50 [3]: > 10000 nM; IC50 ([1]; Mus musculus, 72 h): 770 nM; IC50 ([2]; Homo sapiens, U-937, 72 h): > 10000 nM; IC50 [9]: 3400 nM

`CCCC(=O)N1CCC[C@@H](n2nc(-c3ccc(Oc4ccccc4)cc3)c3c(N)ncnc32)C1` [Compound 54] was tested. Which IC50 [3] did it give?
The IC50 was over 10000 nM.

And the IC50 ([1]; Mus musculus, 72 h)?
Its IC50 is 450 nM.

What about the IC50 ([2]; Homo sapiens, U-937, 72 h) of the same compound?
The IC50 was over 10000 nM.

And the IC50 [9]?
The IC50 was 1200 nM.

With `CC(C)(C)C(=O)N1CCC[C@@H](n2nc(-c3ccc(Oc4ccccc4)cc3)c3c(N)ncnc32)C1` [Compound 55] as the compound, how does the IC50 [3] read?
The IC50 was over 10000 nM.

And the IC50 ([1]; Mus musculus, 72 h)?
Its IC50 is 1800 nM.

And the IC50 ([2]; Homo sapiens, U-937, 72 h)?
The IC50 was over 10000 nM.

What about the IC50 [9] of the same compound?
Its IC50 is over 10000 nM.

`COC(=O)N1CCC(C(=O)N2CCC[C@@H](n3nc(-c4ccc(Oc5ccccc5)cc4)c4c(N)ncnc43)C2)CC1` [Compound 60, (R)-methyl 4-(3-(4-amino-(4-phenoxyphenyl)-1H-pyrazolo[3,4-d]pyrimidin-1-yl)piperidine-1-carbonyl)piperidin-1-carboxylate] was tested. Which IC50 (pro-B cell BaF3) did it give?
Its IC50 is 4370 nM.

And the IC50 [10]?
The IC50 was 770 nM.

And the IC50 ([1]; Mus musculus, 72 h)?
Its IC50 is 300 nM.

And the IC50 [7]?
Its IC50 is 1360 nM.

And the IC50 [9]?
Its IC50 is 520 nM.

With `CN[C@H](CC(C)C)C(=O)NC1CCC(n2nc(-c3ccc(Oc4ccccc4)cc3)c3c(N)ncnc32)CC1` (stereo partly drawn) [Compound 92, (R)-N-(4-(4-amino-(4-phenoxyphenyl)-1H-pyrazolo[3,4-d]pyrimidin-1-yl)cyclohexyl)-4-methyl-2-(methylamino)pentanamide hydrochloride] as the compound, how does the IC50 (pro-B cell BaF3) read?
Its IC50 is 1900 nM.

What about the IC50 [4] of the same compound?
The IC50 was under 0.3 nM.

What about the IC50 ([1]; Mus musculus, 72 h) of the same compound?
Its IC50 is under 0.3 nM.

What about the IC50 [11] of the same compound?
The IC50 was under 0.3 nM.

What about the IC50 [9] of the same compound?
Its IC50 is under 0.3 nM.
